Values of other authors in patent US20240156825A1, “USE OF SELECTIVE VEGFR2 AND FGFR1 INHIBITORS” (Fountain Therapeutics Inc., priority 2022, published 2024).
Like-named read-outs stand apart in the source and are kept apart here.

Columns and labels:
any gene target = settings: next lowest IC50 value to any gene target, read-out: Min IC50_μM, cited from earlier work
VEGFR2 = VEGFR2 (Homo sapiens, UniProt P35968); settings: reported IC50 to VEGFR2, read-out: VEGFR2 IC50_μM, cited from earlier work
[1] = Table 3, selective inhibitors of VEGFR2

VEGFR2, sequence (P35968 20-1356, species assumed): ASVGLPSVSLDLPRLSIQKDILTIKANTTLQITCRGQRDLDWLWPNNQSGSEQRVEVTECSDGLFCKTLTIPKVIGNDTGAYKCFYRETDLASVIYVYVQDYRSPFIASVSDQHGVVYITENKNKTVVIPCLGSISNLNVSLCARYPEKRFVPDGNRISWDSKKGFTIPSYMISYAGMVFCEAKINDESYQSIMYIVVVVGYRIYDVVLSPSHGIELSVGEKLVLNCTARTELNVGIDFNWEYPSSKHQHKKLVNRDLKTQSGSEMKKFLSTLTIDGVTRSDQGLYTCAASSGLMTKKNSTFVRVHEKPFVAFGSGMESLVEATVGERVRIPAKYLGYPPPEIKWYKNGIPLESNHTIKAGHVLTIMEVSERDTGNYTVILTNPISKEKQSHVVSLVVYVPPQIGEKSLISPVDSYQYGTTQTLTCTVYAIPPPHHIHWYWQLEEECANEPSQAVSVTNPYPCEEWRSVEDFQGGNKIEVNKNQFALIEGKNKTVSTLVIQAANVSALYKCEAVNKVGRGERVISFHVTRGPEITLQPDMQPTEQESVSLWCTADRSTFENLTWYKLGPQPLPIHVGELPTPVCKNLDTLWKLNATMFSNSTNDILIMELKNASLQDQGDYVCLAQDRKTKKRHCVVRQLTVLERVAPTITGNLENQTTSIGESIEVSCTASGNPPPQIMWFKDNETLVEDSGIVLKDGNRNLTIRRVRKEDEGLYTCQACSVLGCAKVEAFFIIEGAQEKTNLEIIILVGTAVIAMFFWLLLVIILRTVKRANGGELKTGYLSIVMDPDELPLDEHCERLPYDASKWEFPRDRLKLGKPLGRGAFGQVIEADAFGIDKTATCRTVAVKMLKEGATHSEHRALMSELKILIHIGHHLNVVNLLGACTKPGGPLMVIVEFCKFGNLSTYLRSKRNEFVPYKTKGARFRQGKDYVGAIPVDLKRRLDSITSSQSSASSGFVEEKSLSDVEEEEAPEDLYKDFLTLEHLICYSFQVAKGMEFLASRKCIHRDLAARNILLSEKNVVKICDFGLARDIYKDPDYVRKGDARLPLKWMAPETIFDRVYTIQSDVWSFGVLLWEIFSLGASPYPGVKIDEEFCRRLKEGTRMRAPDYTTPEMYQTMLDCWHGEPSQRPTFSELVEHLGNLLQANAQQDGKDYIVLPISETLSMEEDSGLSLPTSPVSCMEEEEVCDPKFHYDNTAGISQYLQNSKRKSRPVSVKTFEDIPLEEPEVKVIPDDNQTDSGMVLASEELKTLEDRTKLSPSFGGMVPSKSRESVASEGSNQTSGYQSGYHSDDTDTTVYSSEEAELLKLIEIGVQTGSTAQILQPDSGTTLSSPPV

SMILES	IC50 (any gene target) [nM]	IC50 (VEGFR2) [nM]	IC50 (any gene target; Table 3) [nM]	IC50 (VEGFR2; [1]) [nM]
CN1CC(=Cc2ccccn2)C(=O)C(=Cc2ccccn2)C1 [compound 2132479]	1900	1300	–	–
COc1cc2c(Nc3ccc(Cl)cc3F)ncnc2cc1OCCN1CCN(C)CC1 [compound 4913175]	100	30	–	–
COCCOc1cc2ncnc(Nc3ccc(Cl)cc3F)c2cc1OC [compound 5329011]	40	7	–	–
COCCOc1cc2ncnc(Nc3cc(O)c(Cl)cc3F)c2cc1OC [compound 5329013]	–	–	2	2
COc1cc2c(Nc3ccc(Cl)cc3F)ncnc2cc1OCCN1CCOCC1 [compound 5329019]	300	40	–	–
COc1cc2c(Nc3ccc(Cl)cc3F)ncnc2cc1OCCCN1CCOCC1 [compound 5329020]	50	9	–	–
COc1cc2c(Nc3ccc(Cl)cc3F)ncnc2cc1OCCN(C)c1ccncc1 [compound 5329026]	100	6	–	–
COc1cc2c(Nc3ccc(C#N)cc3F)ncnc2cc1OC/C=C/CN1CCCC1 [compound 5329040]	500	230	–	–
COc1cc2c(Nc3ccc(C)cc3F)ncnc2cc1OCC1CCN(C)CC1 [compound 5329042]	65	25	–	–
COc1cc2c(Nc3c(F)cc(Cl)cc3F)ncnc2cc1OCC1CCN(C)CC1 [compound 5329045]	60	25	–	–
COc1cc2c(Nc3c(F)cc(Br)cc3F)ncnc2cc1OCC1CCN(C)CC1 [compound 5329046]	100	10	–	–
COc1cc2c(Nc3ccc(C)cc3F)ncnc2cc1OCC1CCNCC1 [compound 5329049]	250	30	–	–
COc1cc2c(Nc3c(F)cc(Cl)cc3F)ncnc2cc1OCC1CCNCC1 [compound 5329050]	100	40	–	–
COc1cc2c(Nc3c(F)cc(Br)cc3F)ncnc2cc1OCC1CCNCC1 [compound 5329051]	70	15	–	–
COc1cc2c(Nc3ccc(Cl)cc3F)ncnc2cc1OCCC1CCN(C)CC1 [compound 5329052]	70	55	–	–
COc1cc2c(Nc3ccc(Br)cc3F)ncnc2cc1OCCC1CCN(C)CC1 [compound 5329053]	60	6	–	–
COc1cc2c(Nc3ccc(Br)cc3F)ncnc2cc1OCCC1CCNCC1 [compound 5329054]	–	–	40	40
COc1cc2c(Nc3ccc(Cl)cc3F)ncnc2cc1OC[C@@H]1CCCN(C)C1 [compound 5329055]	80	5	–	–
COc1cc2c(Nc3ccc(Br)cc3F)ncnc2cc1OC[C@@H]1CCCN(C)C1 [compound 5329056]	60	1	–	–
COc1cc2c(Nc3ccc(Br)cc3F)ncnc2cc1OC[C@H]1CCCN(C)C1 [compound 5329057]	40	10	–	–
COc1cccc(-c2ccc3c(c2)NC(=O)/C3=C\c2[nH]c3c(c2CCC(=O)O)CCCC3)c1 [compound 5329169]	100	70	–	–
c1ccc(-c2cnn3cc(-c4ccc(OCCN5CCOCC5)cc4)cnc23)cc1 [compound 5329447]	32	9	–	–

SMILES	IC50 (any gene target) [nM]	IC50 (VEGFR2) [nM]	IC50 (any gene target; Table 3) [nM]	IC50 (VEGFR2; [1]) [nM]
OCCCNc1cncc(-c2cncc(Nc3cccc(Cl)c3)n2)c1 [compound 5330387]	–	–	5	5
OCCCCNc1cncc(-c2cncc(Nc3cccc(Cl)c3)n2)c1 [compound 5330388]	2360	63	–	–
Clc1cccc(Nc2cncc(-c3cncc(NCCCn4cccn4)c3)n2)c1 [compound 5330391]	326	93.3	–	–
Clc1cccc(Nc2cncc(-c3cncc(NCCCn4cncn4)c3)n2)c1 [compound 5330392]	153	67	–	–
COc1ccccc1/C(C)=C/c1coc2nc(N)nc(N)c12 [compound 6477203]	12800	10300	–	–
COc1cc2c(Oc3ccc(Nc4ccc(C(C)(C)C)cc4)cc3)ccnc2cc1OCCNCCO [compound 9850161]	–	–	69	69
COc1cc2c(Nc3ccc(Br)c(Cl)c3F)ncnc2cc1OC[C@@H]1CN2CCOC[C@H]2CO1 [compound 9937516]	–	–	50	50
COc1cc2c(Nc3ccc(F)c(Cl)c3F)ncnc2cc1OC[C@H]1CN2CCOC[C@H]2CO1 [compound 10028639]	–	–	50	50
COc1cc2c(Nc3ccc(Cl)c(Cl)c3F)ncnc2cc1OC[C@H]1CN2CCOC[C@H]2CO1 [compound 10029284]	–	–	50	50
COc1cc2c(Nc3cc(Cl)c(Br)cc3F)ncnc2cc1OC[C@H]1CN2CCOC[C@H]2CO1 [compound 10030541]	–	–	50	50
CC(C)(Nc1nc(NO)nc(Nc2ccc3ncsc3c2)n1)c1ccccc1 [compound 10249989]	420	40	–	–
COc1cc2c(Nc3ccc(Cl)c(Cl)c3)ncnc2cc1OC1C[C@@H]2CN(C)C[C@@H]2C1 (some centres unmarked) [compound 10253661]	–	–	50	50
Cc1nc2cc(N(C)c3ccnc(Nc4cccc(S(N)(=O)=O)c4)n3)ccc2n1C [compound 10273854]	9000	17	–	–
COc1cc2c(Nc3cc(Cl)c(Cl)cc3F)ncnc2cc1OC[C@H]1CN2CCOC[C@H]2CO1 [compound 10346203]	–	–	50	50
COc1cc2c(Nc3ccc(Br)c(Cl)c3F)ncnc2cc1OC[C@H]1CN2CCOC[C@H]2CO1 [compound 10370400]	–	–	50	50
O=C1N/C=C/c2ccc(c(Br)c2)Oc2cc(cc(Br)c2O)CCNC(=O)/C(=N/O)Cc2ccc(c(Br)c2)Oc2cc(cc(Br)c2O)C/C1=N\O [compound 10396070]	1500	1300	–	–
COc1cc2c(Nc3ccc(Cl)c(Cl)c3)ncnc2cc1OCc1cscn1 [compound 10455540]	–	–	50	50
COCCNC(=O)c1cccc2cc(Oc3ccnc4cc(OC)c(C(N)=O)cc34)ccc12 [compound 11224593]	233	22	–	–
COCCNC(=O)c1cccc2cc(Oc3ccnc4cc(OC)c(OC)cc34)ccc12 [compound 11362483]	73	12	–	–
COc1cc2nccc(Oc3ccc4c(NC(=O)c5cccc(C(F)(F)F)c5)nn(C)c4c3)c2cc1OC [compound 11398307]	45	1	–	–
COc1cc2nccc(Oc3ccc4c(C(N)=O)cccc4c3)c2cc1OC [compound 11474276]	88	0.891	–	–
COc1cc(C2=C(c3c[nH]c4ccccc34)C(=O)NC2=O)cc(OC)c1OC [compound 11530963]	5	2.5	–	–

SMILES	IC50 (any gene target) [nM]	IC50 (VEGFR2) [nM]	IC50 (any gene target; Table 3) [nM]	IC50 (VEGFR2; [1]) [nM]
O=C(NC1CC1)c1cc(NCc2cnc(Nc3ccccn3)s2)c(F)cc1F [compound 11632737]	200	23	–	–
COc1cc2nccc(Oc3ccc4c(C(=O)NC5CC5)cccc4c3)c2cc1C(N)=O [compound 11750694]	185	0.37	–	–
O=C(Nc1cccc(-c2cn3ccnc3c(NCc3ccncc3)n2)c1)Nc1cccc(C(F)(F)F)c1 [compound 11755812]	35	33	–	–
Cn1ccc2ncnc(Oc3ccc(NC(=O)Nc4cccc(C(F)(F)F)c4)c(F)c3)c21 [compound 15949613]	15	0.033	–	–
Cc1ccc(NC(=O)c2ccc(C(C)(C)C)s2)cc1Nc1nc2ccccc2n1-c1cc(N)ncn1 [compound 15949617]	4	4	–	–
Cc1ccc(NC(=O)c2cc(C3CC3)[nH]n2)cc1Nc1nc2ccccc2n1-c1cc(N)ncn1 [compound 15949619]	50	48	–	–
COc1ccc(Nc2ncc3c(n2)-c2ccccc2NC(=O)C3)cc1O [compound 16730105]	640	73	–	–
COc1cc2c(Nc3ccc(Cl)cc3F)ncnc2cc1OCCCN1CCN(C)CC1 [compound 21701597]	50	20	–	–
Cc1[nH]nc2cc(N(C)c3ccnc(Nc4cccc(S(N)(=O)=O)c4)n3)ccc12 [compound 21956341]	700	0.6	–	–
COc1cc2c(Nc3ccc(Br)cc3F)ncnc2cc1OC/C=C/CN1CCCC1 [compound 22478260]	30	8	–	–
COc1cc2c(Nc3ccc(Cl)cc3F)ncnc2cc1OC/C=C/CN1CCCC1 [compound 22478297]	–	–	40	40
COc1cc2c(Nc3ccc(Cl)cc3F)ncnc2cc1OCC1CCN(C)CC1 [compound 23133320]	50	15	–	–
COc1cc2nccc(Oc3ccc4c(C(=O)NC5CCCC5)cccc4c3)c2cc1OC [compound 24822599]	620	9	–	–
COc1cc2nccc(Oc3ccc4c(C(=O)NC(C)C)cccc4c3)c2cc1OC [compound 24822600]	190	5	–	–
COc1cc2nccc(Oc3ccc4c(C(=O)NC(C)(C)C)cccc4c3)c2cc1OC [compound 24823091]	3700	1500	–	–
COc1cc2ncnc(Oc3ccc4c(C(=O)NC5CC5)cccc4c3)c2cc1OC [compound 24823093]	360	2.88	–	–
COc1cc2nccc(Oc3ccc4c(C(=O)NCC(F)(F)F)cccc4c3)c2cc1OC [compound 24823250]	16	3.8	–	–
COCCNC(=O)c1cccc2cc(Oc3ncnc4cc(OC)c(OC)cc34)ccc12 [compound 24823252]	385	314	–	–
COc1cc2nccc(Oc3ccc4c(C(=O)NC5CCC5)cccc4c3)c2cc1OC [compound 24824448]	440	1.3	–	–
COc1cc(C2=C(c3c[nH]c4ccccc34)CNC2=O)cc(OC)c1OC [compound 24894117]	37	31	–	–
